Read-outs that look alike come from different tables or passages of the source. Where only a bound is given, the exact number is not on record here.

Data set [1] has as its target T1, Recombinant Rhinovirus 3C protease (RVP) serotype-14 (Human rhinovirus 14, UniProt P03303).
T1 construct: Recombinant Rhinovirus 3C proteases from serotypes 14, 16, 2 or 89; made in house
The experiment in a line: Inhibition of Rhinovirus Protease (fluorescence resonance energy transfer assay), serotype 14. Conditions: RVP serotype-14; for INHIB (percent inhibition): 10 minute preincubation with 50 nM RVP; for kobs/I: progress curves in enzyme start experiments; for Ki: 10 minute preincubation, substrate start, read-out: INHIB (Ki). It counts as biochemical, human rhinovirus (HRV). The procedure: Stock solution (50 mM, in DMSO) of various compounds were prepared; dilutions were in the same solvent. […] Assays contained 2% DMSO, 50 mM tris pH 7.6, 1 mM EDTA, a compound at the indicated concentrations, approximately 1 μM substrate, and 50-100 nM protease. […] The kobs/I values were obtained from reactions initiated by addition of enzyme rather than substrate. RVP activity is measured in the fluorescence resonance energy transfer assay. […] In the uncleaved peptide, the EDANS fluorescence was quenched by the proximal DABCYL moeity. When the peptide was cleaved, the quenching was relieved, and activity was measured as an increase in fluorescence signal.
In the above table, all data is RVP serotype-14 unless otherwise noted in parentheses. All strains of human rhinovirus (HRV) were purchased from American Type Culture Collection (ATCC), except for serotype 14, which was produced from the infectious cDNA clone constructed and supplied to us by Dr. Roland Rueckert at the Institute for Molecular Virology, University of Wisconsin, Madison, Wisc. […] The data in the column designated kobs/I was measured from progress curves in enzyme start experiments.

A further data set deals with HI-HeLa cells. The experiment in a line: Cytotoxicity in mock-infected HI-HeLa cells (antirhinoviral assay, XTT). It counts as cell-based. The protocol:
(§1) HI-HeLa cells were infected with HRV-14 at a multiplicity of infection (m.o.i.) of 0.13 (virus particles/cell) or mock-infected with medium only. Infected or mock-infected cells were resuspended at 8×10^5 cells per mL and incubated with appropriate concentration of compounds of formulas I and II. Two days later, XTT/PMS was added to test plates and the amount of formazan produced was quantified spectrophotometrically at 450/650 nm. […] The therapeutic index (TI) was calculated by dividing the CC50 by the EC50.
(§2) All strains of human rhinovirus (HRV) for use in this assay were purchased from American Type Culture Collection (ATCC), except for HRV serotype-14, which was produced from the infectious cDNA clone, constructed and supplied to us by Dr. Roland Rueckert at the Institue for Molecular Virology, University of Wisconsin, Madison, Wisc. HRV stocks were propagated, and antiviral assays were perforemd in HI-HeLa cells (ATCC). Cells were grwon in Minimal Essential Medium, available from Life Technologies, with 10% fetal bovine serum.

Another data set deals with HRV-14. The experiment in a line: Antirhinoviral HI-HeLa Cell Culture Assay (Cell Protection Assay, XTT dye reduction). It counts as cell-based, human rhinovirus (HRV) serotype-14. To be noted: HI-HeLa cells infected with HRV-14, m.o.i. 0.13; two days; XTT; read-out: EC50. The protocol:
In the Cell Protection Assay, the ability of compounds to protect cells against HRV infection was measured by the XTT dye reduction method. This method is described in Weislow, O. S., R. Kiser, D. L. Fine, J. Bader, R. H. Shoemaker, and M. R. Boyd, J. Natl. Cancer Inst. 1989, 81, 577-586, which is incorporated herein by reference.
as §1, §2
The compounds were tested against control compounds WIN 51711, WIN 52084, and WIN 54954, all obtained from Sterling-Winthrop Pharmaceuticals, and control compound Pirodavir, obtained from Janssen Pharmaceuticals.

[2] abbreviates: mock-infected HI-HeLa cells, two days, XTT, read-out: CC50.

T1 sequence (P03303 1538-1719): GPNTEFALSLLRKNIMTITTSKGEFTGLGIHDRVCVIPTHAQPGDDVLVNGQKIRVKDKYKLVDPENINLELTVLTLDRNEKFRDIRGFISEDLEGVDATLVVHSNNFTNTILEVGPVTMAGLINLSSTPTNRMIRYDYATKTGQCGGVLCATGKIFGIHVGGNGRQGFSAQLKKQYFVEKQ

Regarding `CC(C)C[C@H](NC(=O)OCc1ccccc1)C(=O)N[C@@H](Cc1ccccc1)C(=O)N[C@H](/C=C/C(=O)O)CCC(N)=O` [Compound 15, 3-(CBZ-L-Leu-L-Phe-L-Gln)-E-Propenoic Acid], in data set [1], the “INHIB (percent inhibition)” value is reported as 55(50) percent and the kobs/I turned out to be 27 M⁻¹ s⁻¹. Also, in the data set with HI-HeLa cells, the CC50 was above 100 µM. In addition, the EC50 in the data set on HRV-14 is above 100 µM.
With `CCNC(=O)/C=C/[C@H](CCC(N)=O)NC(=O)[C@H](Cc1ccccc1)NC(=O)[C@H](CC(C)C)NC(=O)OCc1ccccc1` [Compound 6, N-Ethyl-3-(CBZ-L-Leu-L-Phe-L-Gln)-E-Propenamide], in data set [1], the Ki stood at 32 µM and the kobs/I was determined as 350 M⁻¹ s⁻¹. In the data set on HI-HeLa cells, this compound registered a CC50 above 320 µM. Moreover, in the data set with HRV-14, the EC50 is above 320 µM.
`CCOC(=O)/C=C/[C@H](CCC(N)=O)NC(=O)[C@@H](NC(=O)[C@H](CC(C)C)NC(=O)OCc1ccccc1)C(C)O` (some centres unmarked) [Compound 134]: in data set [1], the kobs/I is reported as 1,769 M-1 sec-1. This compound showed a cytotoxic concentration (CC50) with HI-HeLa cells above 320 µM. Moreover, the EC50 in the data set on HRV-14 was 56.2 µM.
Consider `CCOC(=O)/C=C/[C@H](CCC(N)=O)NC(=O)[C@H](Cc1ccccc1)NC(=O)[C@H](C)NC(=O)OCc1ccccc1` [Compound 101], for which, in data set [1], the kobs/I is reported as 11,288 M-1 sec-1. In addition, the CC50 in the data set with HI-HeLa cells (setting [2]) is above 320 µM. For the same compound, the EC50 in the data set with HRV-14 was found to be 2 µM.
For `CC(C)C[C@H](NC(=O)OCc1ccccc1)C(=O)N[C@@H](Cc1ccccc1)C(=O)N[C@H](/C=C/C=O)CCC(N)=O` [Compound 81] the same measures were 124,000 M-1 sec-1, 112 µM and 8 µM.
As for `CC(C)C[C@H](NC(=O)OCc1ccccc1)C(=O)N[C@@H](Cc1ccccc1)C(=O)N[C@H](/C=C/S(C)(=O)=O)CCC(N)=O` [Compound 9, Methyl-[2-(CBZ-L-Leu-L-Phe-L-Gln)-E-Vinyl]Sulfone], the “INHIB (percent inhibition)” value in data set [1] (1 μM compound) is 20(1) percent. Further, in data set [1], the kobs/I was found to be 160 M⁻¹ s⁻¹. In the data set with HI-HeLa cells, the CC50 was above 320 µM. The concentration for a half-maximal effect (EC50) with HRV-14 is above 320 µM.
Regarding `CC(C)C[C@H](NC(=O)OCc1ccccc1)C(=O)N[C@@H](Cc1ccccc1)C(=O)N[C@H](/C=C/C(=O)N1CCc2cc(Cl)ccc21)CCC(N)=O` [Compound 92], the kobs/I in data set [1] was determined as 445 M⁻¹ s⁻¹. Also, the 50% cytotoxic concentration (CC50) with HI-HeLa cells (setting [2]) worked out at 56 µM. In addition, the EC50 in the data set on HRV-14 was 5.6 µM.
For `CC(C)C[C@H](NC(=O)OCc1ccccc1)C(=O)N[C@@H](Cc1ccccc1)C(=O)N[C@H](/C=C/C(=O)N1CCCCO1)CCC(N)=O` [Compound 84] the same measures were 18,650 M-1 sec-1, above 320 µM and 16 µM.
For `CCOC(=O)/C=C/[C@H](CCC(N)=O)NC(=O)[C@H](Cc1cccc(F)c1)NC(=O)c1cc2c(OC)cccc2[nH]1` [Compound 28, Ethyl-3-[N-(4-Methoxyindole-2-Carbonyl)-L-(3-F-Phe)-L-Gln]-E-Propenoate], in data set [1], the Ki amounted to 57 µM and the kobs/I is recorded as 4,000 M-1 sec-1. This compound returned a CC50 in the data set on HI-HeLa cells of 63.1 µM. In addition, the EC50 in the data set on HRV-14 stood at 4.5 µM.
Consider `CCOC(=O)/C=C/[C@H](CCC(N)=O)NC(=O)[C@H](Cc1ccccc1)NC(=O)[C@H](CC(C)C)NC(=O)c1ccccc1` [Compound 67], for which the kobs/I in data set [1] was 9,600 M-1 sec-1. Further, in the data set with HI-HeLa cells, the half-maximal cytotoxic concentration (CC50) is above 320 µM. For the same compound, the EC50 in the data set with HRV-14 turned out to be 5.2 µM.
For `CC(C)C[C@H](NC(=O)OCc1ccccc1)C(=O)N[C@@H](Cc1ccccc1)C(=O)N[C@H](/C=C/C(=O)C(C)(C)C)CCC(N)=O` [Compound 52] the same measures were 15,000 M-1 sec-1, 5.6 µM and 1.7 µM.
As to `CCOC(=O)/C=C/[C@H](CCC(N)=O)NC(=O)CNC(=O)[C@H](CC(C)C)NC(=O)OCc1ccccc1` [Compound 99], the “INHIB (percent inhibition)” value in data set [1] is reported as 10 (50) percent. The CC50 with HI-HeLa cells was above 320 µM. For the same compound, the EC50 with HRV-14 amounted to 141 µM.
As to `CCOC(=O)/C=C/[C@H](CCC(N)=O)NC(=O)[C@H](CSC)NC(=O)[C@H](CC(C)C)NC(=O)OCc1ccccc1` [Compound 142], in data set [1], the kobs/I was 2,929 M-1 sec-1. Further, the CC50 in the data set on HI-HeLa cells is above 320 µM. The half-maximal effective concentration (EC50) with HRV-14 was 8.9 µM.
Turning to `CC(C)C[C@H](NC(=O)OCc1ccccc1)C(=O)N[C@@H](Cc1ccccc1)C(=O)N[C@H](/C=C/C(=O)N1CCc2ccc(S(C)(=O)=O)cc21)CCC(N)=O` [Compound 97], in data set [1], the kobs/I is 12,900 M-1 sec-1. Moreover, in the data set with HI-HeLa cells (setting [2]), the cytotoxic concentration (CC50) was above 320 µM. Besides, the half-maximal effective concentration (EC50) in the data set on HRV-14 is above 320 µM.
Consider `CCOC(=O)/C=C/[C@H](CCC(N)=O)NC(=O)[C@H](CSCC)NC(=O)[C@H](CC(C)C)NC(=O)OCc1ccccc1` [Compound 143], for which the kobs/I in data set [1] is 2,963 M-1 sec-1. Besides, the CC50 with HI-HeLa cells was above 320 µM. Besides, in the data set with HRV-14, the concentration for a half-maximal effect (EC50) amounted to 10 µM.
For `CC(C)C[C@H](NC(=O)OCc1ccccc1)C(=O)N[C@@H](Cc1ccccc1)C(=O)N[C@H](/C=C/C(=O)n1cccc1)CCC(N)=O` [Compound 66] the same measures were 400,000 M-1 sec-1, 6.3 µM and 1.4 µM.
On to `CCOC(=O)/C=C/[C@H](CCC(N)=O)NC(=O)[C@H](Cc1ccc(OC(C)=O)cc1)NC(=O)[C@H](CC(C)C)NC(=O)OCc1ccccc1` [Compound 100], for which the kobs/I in data set [1] is 1,200 M-1 sec-1. Moreover, the CC50 with HI-HeLa cells (setting [2]) is above 320 µM. For the same compound, the 50% effective concentration (EC50) in the data set on HRV-14 was found to be 11.1 µM.
As to `CCOC(=O)/C=C/[C@H](CCC(N)=O)NC(=O)[C@H](Cc1ccc(F)cc1)NC(=O)[C@@H](NC(=O)SC1CCCC1)C(C)C` [Compound 184], the kobs/I in data set [1] is 59,900 M-1 sec-1. The compound further had a cytotoxic concentration (CC50) with HI-HeLa cells above 100 µM. Besides, the concentration for a half-maximal effect (EC50) in the data set on HRV-14 is 0.19 µM.
As for `CCOC(=O)C=CC(CCC(N)=O)NC(=O)C(Cc1ccccc1)NC(=O)C(NC(=O)SC1CCCC1)C(C)(C)[S+](C)[O-]` (mixture of isomers) [Compound 179, Ethyl-3-(Cyclopentylthiocarbonyl-L-[S(O)-Me-Pen]-L-Phe-L-Gln)-E-Propenoate], in data set [1], the inhibition constant (Ki) came to 0.36 µM and the kobs/I is on record as 300,000 M-1 sec-1. Moreover, the 50% cytotoxic concentration (CC50) in the data set with HI-HeLa cells is above 100 µM. The concentration for a half-maximal effect (EC50) in the data set with HRV-14 worked out at 1.78 µM.
On to `CCOC(=O)/C(C)=C/[C@H](CCC(N)=O)NC(=O)[C@H](Cc1ccc(F)cc1)NC(=O)[C@@H](NC(=O)SC1CCCC1)C(C)(C)C` [Compound 177, Ethyl-2-Methyl-3-[Cyclopentylthiocarbonyl-L-α-(t-Butyl-Gly)-L-(4-F-Phe)-L-Gln]-E-Propenoate], for which the kobs/I in data set [1] is 80,300 M-1 sec-1. The same compound registered a 50% cytotoxic concentration (CC50) in the data set on HI-HeLa cells above 100 µM. Also, in the data set with HRV-14, the concentration giving a half-maximal response (EC50) was determined as 0.5 µM.
For `CCOC(=O)/C=C/[C@H](CCC(N)=O)NC(=O)[C@H](Cc1ccccc1)NC(=O)[C@H](CC(C)C)NC(=O)C1CCCC1` [Compound 116] the same measures were 23,670 M-1 sec-1, above 320 µM and 0.6 µM.
For `CCOC(=O)/C=C/[C@H](CCC(N)=O)NC(=O)[C@H](Cc1ccccc1)NC(=O)[C@@H](NC(=O)SC1CCCC1)C(C)(C)SC` [Compound 178, Ethyl-3-[Cyclopentylthiocarbonyl-L-(S-Me-Pen)-L-Phe-L-Gln]-E-Propenoate] the same measures were 286,300 M-1 sec-1, above 100 µM and 0.1 µM.
For `CCOC(=O)/C(C)=C/[C@H](CCC(N)=O)NC(=O)[C@H](Cc1ccccc1)NC(=O)[C@@H](NC(=O)SCC)C(C)(C)C` [Compound 168, Ethyl-2-Methyl-3-[Ethylthiocarbonyl-L-α-(t-Butyl-Gly)-L-Phe-L-Gln]-E-Propenoate] the same measures were 37,800 M-1 sec-1, above 100 µM and 0.32 µM.
As to `CCOC(=O)/C=C/[C@H](CCC(N)=O)NC(=O)[C@H](Cc1ccccc1)NC(=O)[C@H](CC(C)C)NC(=O)SC1CCCC1` [Compound 182], the kobs/I in data set [1] is recorded as 114,360 M-1 sec-1. The cytotoxic concentration (CC50) with HI-HeLa cells was above 100 µM. In the data set with HRV-14, the EC50 came to 0.18 µM.

These data come from patent publication US6362166B1, “Antipicornaviral compounds and methods for their use and preparation” (Agouron Pharmaceuticals, Inc., priority 1996, dated 2002).
